Assay results reported in PMC11326893, “A comprehensive measure of Golgi sphingolipid flux using NBD C6-ceramide: evaluation of sphingolipid inhibitors” (Journal of Lipid Research, 2024).

How the values were obtained:
ceramide kinase (CERK) [1] = biological target: T1, ceramide kinase (CERK) (Homo sapiens, UniProt Q8TCT0); experiment: in vitro activity assay with purified recombinant CERK, NBD-C6-Cer substrate; only about […] decrease at […]; format: biochemical; parameters: full-length human CERK; conditions: read-out: % decrease in activity at 50 μM and 100 μM
T1 sequence (Q8TCT0 1-537): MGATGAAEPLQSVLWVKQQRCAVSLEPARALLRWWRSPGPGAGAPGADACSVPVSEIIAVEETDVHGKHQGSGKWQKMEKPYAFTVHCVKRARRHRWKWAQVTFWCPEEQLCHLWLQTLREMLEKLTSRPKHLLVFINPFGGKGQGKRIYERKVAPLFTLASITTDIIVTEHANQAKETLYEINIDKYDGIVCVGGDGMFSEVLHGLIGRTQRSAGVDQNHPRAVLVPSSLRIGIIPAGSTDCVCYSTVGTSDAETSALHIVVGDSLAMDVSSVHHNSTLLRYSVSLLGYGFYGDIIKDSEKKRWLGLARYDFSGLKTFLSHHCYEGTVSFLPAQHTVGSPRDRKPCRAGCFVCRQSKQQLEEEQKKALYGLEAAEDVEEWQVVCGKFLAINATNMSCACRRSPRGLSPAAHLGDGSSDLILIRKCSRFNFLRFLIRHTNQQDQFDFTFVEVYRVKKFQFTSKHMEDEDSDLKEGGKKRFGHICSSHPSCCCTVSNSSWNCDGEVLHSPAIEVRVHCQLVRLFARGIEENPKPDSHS

ceramide kinase (CERK) [2] = biological target: T1, ceramide kinase (CERK); experiment: NBD-C6-ceramide to NBD-C1P conversion (HPLC, fluorescence) in MCF7 cells overexpressing CERK; format: cell-based
[3] = biological target: T2, glucosylceramide synthase (GCS) (Homo sapiens, UniProt Q16739); experiment: NBD-C6-ceramide to NBD-HexCer conversion in MCF7 cells, […] eliglustat; format: cell-based
T2 construct: gene UGCG
T2 sequence (Q16739 1-394): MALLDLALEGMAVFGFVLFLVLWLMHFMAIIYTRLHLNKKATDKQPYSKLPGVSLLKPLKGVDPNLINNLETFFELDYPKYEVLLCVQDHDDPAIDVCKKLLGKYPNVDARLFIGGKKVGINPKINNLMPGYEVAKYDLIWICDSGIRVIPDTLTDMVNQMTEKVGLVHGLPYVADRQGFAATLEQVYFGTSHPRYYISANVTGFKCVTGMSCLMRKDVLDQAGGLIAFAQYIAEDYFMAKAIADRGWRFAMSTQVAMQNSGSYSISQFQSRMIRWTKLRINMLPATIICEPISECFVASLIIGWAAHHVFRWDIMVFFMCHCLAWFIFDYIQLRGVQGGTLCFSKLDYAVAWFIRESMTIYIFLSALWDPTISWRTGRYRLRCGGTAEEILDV

CCCCCCCCCC(=O)NC(CN1CCOCC1)C(O)c1ccccc1 (stereo not drawn) [PDMP, 1-phenyl-2-decanoylamino-3-morpholino-1-propanol]
inhibition at 50 µM (ceramide kinase (CERK) [1]): 20%

O=C(Nc1nc2ccc(NC(=O)C34CC5CC(CC(C5)C3)C4)cc2s1)c1ccccc1 [NVP-231]
IC50 (ceramide kinase (CERK) [2]): < 10 nM

CCCCCCCC(=O)N[C@H](CN1CCCC1)[C@H](O)c1ccc2c(c1)OCCO2 [eliglustat]
NBD-C6-ceramide to NBD-HexCer conversion in MCF7 cells, 50 nM eliglustat [3]: Inhibition with eliglustat and PDMP both nearly eliminated the production of NBD-C6-HexCer
